Laboratory results taken from PubChem BioAssay AID234 (DTP/NCI, 2004).
“And” between values parts separate entries of the source, which are not always exact repeats. Identical values can stand only once. Results filed as inconclusive are left out.

Tested on: C3AKF1 mice, hamster liver cystadenocarcinoma s.c., tumor weight T/C
Assay: NCI In Vivo Anticancer Drug Screen. Data for tumor model Cystadenocarcinoma, Liver (No. 1) (Hamster) (subcutaneous) in C3AKF1 (CHKRF1) mice
Conditions: endpoint: mean tumor weight, higher = larger tumour
Protocol: The antitumor activity of compounds was measured in mice bearing transplantable tumors. Survival or tumor size were measured and the results are expressed as the measurement made in the treated group (T) divided by the measurement made in the vehicle treated control group (C). The tumor model used in this assay is Cystadenocarcinoma, Liver (No. 1) (Hamster) (subcutaneous) in C3AKF1 (CHKRF1) mice

[1] = dose: 6.0 mg/kg/injection, schedule: Q01DX010 (ip), vehicle: carboxymethylcellulose (CMC)
[2] = dose: 25.0 mg/kg/injection, schedule: Q01DX010 (ip), vehicle: carboxymethylcellulose (CMC)
[3] = dose: 100.0 mg/kg/injection, schedule: Q01DX010 (ip), vehicle: carboxymethylcellulose (CMC)
[4] = dose: 400.0 mg/kg/injection, schedule: Q01DX010 (ip), vehicle: carboxymethylcellulose (CMC)
[5] = dose: 50.0 mg/kg/injection, schedule: Q01DX010 (ip), vehicle: carboxymethylcellulose (CMC)
[6] = dose: 3.5 mg/kg/injection, schedule: Q#A X020 (ip), vehicle: carboxymethylcellulose (CMC)
[7] = dose: 200.0 mg/kg/injection, schedule: Q01DX010 (ip), vehicle: carboxymethylcellulose (CMC)
[8] = dose: 31.0 mg/kg/injection, schedule: Q01DX010 (ip), vehicle: carboxymethylcellulose (CMC)
[9] = dose: 0.5 mg/kg/injection, schedule: Q01DX010 (ip), vehicle: carboxymethylcellulose (CMC)
[10] = dose: 1.0 mg/kg/injection, schedule: Q01DX010 (ip), vehicle: carboxymethylcellulose (CMC)
[11] = dose: 2.0 mg/kg/injection, schedule: Q01DX010 (ip), vehicle: carboxymethylcellulose (CMC)
[12] = dose: 4.0 mg/kg/injection, schedule: Q01DX010 (ip), vehicle: carboxymethylcellulose (CMC)
[13] = dose: 12.0 mg/kg/injection, schedule: Q01DX010 (ip), vehicle: carboxymethylcellulose (CMC)
[14] = dose: 3.0 mg/kg/injection, schedule: Q01DX010 (ip), vehicle: carboxymethylcellulose (CMC)
[15] = dose: 15.0 mg/kg/injection, schedule: Q01DX010 (ip), vehicle: carboxymethylcellulose (CMC)
[16] = dose: 20.0 mg/kg/injection, schedule: Q01DX010 (ip), vehicle: carboxymethylcellulose (CMC)
[17] = dose: 40.0 mg/kg/injection, schedule: Q01DX010 (ip), vehicle: carboxymethylcellulose (CMC)

## O=C1C=CC(=Nc2ccc(O)c3ncccc23)c2cccnc21
[1]
  T/C: 95 % of control

## Clc1ncnc2c1ncn2C1CCCO1 (configuration not stated)
[2]
  T/C: 77 % of control
[3]
  T/C: 81 % of control and 93 % of control
[4]
  T/C: 52 % of control and 72 % of control
dose: 800.0 mg/kg/injection, schedule: Q01DX010 (ip), vehicle: carboxymethylcellulose (CMC)
  T/C: 113 % of control

## CCN(CC)CC(C)Nc1ccc(C)c2sc3ccccc3c(=O)c12 (configuration not stated)
[2]
  T/C: 98 % of control
[5]
  T/C: 87 % of control
[3]
  T/C: 76 % of control

## COC(=O)/C=C\C(=O)O (tested in a mixture with another compound)
[6]
  T/C: 105 % of control
dose: 7.5 mg/kg/injection, schedule: Q#A X020 (ip), vehicle: carboxymethylcellulose (CMC)
  T/C: 49 % of control
dose: 15.0 mg/kg/injection, schedule: Q#A X020 (ip), vehicle: carboxymethylcellulose (CMC)
  T/C: 38 % of control

## CCC[CH2][Sn]1([CH2]CCC)[O]C(=O)C[S]1
dose: 0.39 mg/kg/injection, schedule: Q01DX010 (ip), vehicle: saline
  T/C: 113 % of control
dose: 0.78 mg/kg/injection, schedule: Q01DX010 (ip), vehicle: saline
  T/C: 110 % of control
dose: 1.56 mg/kg/injection, schedule: Q01DX010 (ip), vehicle: saline
  T/C: 66 % of control

## Nc1ncnc2c1ncn2C1CCCO1 (configuration not stated)
[2]
  T/C: 107 % of control
[5]
  T/C: 107 % of control
[7]
  T/C: 69 % of control

## CCCCCCCCCCCCCS
[2]
  T/C: 100 % of control
[5]
  T/C: 69 % of control
[3]
  T/C: 90 % of control

## Cc1cc(N)c2cc(NC(=O)CCCCCCCCC(=O)Nc3ccc4nc(C)cc(N)c4c3)ccc2n1
[8]
  T/C: 68 % of control
dose: 62.0 mg/kg/injection, schedule: Q01DX010 (ip), vehicle: carboxymethylcellulose (CMC)
  T/C: 50 % of control
dose: 125.0 mg/kg/injection, schedule: Q01DX010 (ip), vehicle: carboxymethylcellulose (CMC)
  T/C: 38 % of control

## O=P(N1CC1)(N1CC1)N1CC1
[9]
  T/C: 93 % of control
[10]
  T/C: 65 % of control
[11]
  T/C: 71 % of control
[12]
  T/C: 48 % of control

## S=c1nc[nH]c2c1ncn2C1CCCO1 (configuration not stated)
[13]
  T/C: 95 % of control
[2]
  T/C: 74 % of control
[5]
  T/C: 63 % of control

## Cn1cnc([N+](=O)[O-])c1Sc1nc(N)nc2c1ncn2C1OC(CO)C(O)C1O (configuration not stated)
[10]
  T/C: 124 % of control
[14]
  T/C: 69 % of control
[15]
  T/C: 88 % of control

## N#CCSc1nc(N)nc2nc[nH]c12
[11]
  T/C: 87 % of control
[12]
  T/C: 102 % of control
dose: 8.0 mg/kg/injection, schedule: Q01DX010 (ip), vehicle: carboxymethylcellulose (CMC)
  T/C: 98 % of control
dose: 16.0 mg/kg/injection, schedule: Q01DX010 (ip), vehicle: carboxymethylcellulose (CMC)
  T/C: 99 % of control

## O=[N+]([O-])c1ccccc1CSc1ncnc2nc[nH]c12
[15]
  T/C: 101 % of control
[8]
  T/C: 99 % of control
dose: 250.0 mg/kg/injection, schedule: Q01DX010 (ip), vehicle: carboxymethylcellulose (CMC)
  T/C: 61 % of control

## CS(=O)(=O)OCC(=O)NCCNC(=O)COS(C)(=O)=O
[16]
  T/C: 105 % of control
[17]
  T/C: 100 % of control

## COC(=S)SCN(CSC(=S)OC)c1ccccc1Cl
dose: 125.0 mg/kg/injection, schedule: Q01DX010 (ip), vehicle: saline
  T/C: 99 % of control
dose: 250.0 mg/kg/injection, schedule: Q01DX010 (ip), vehicle: saline
  T/C: 84 % of control
dose: 500.0 mg/kg/injection, schedule: Q01DX010 (ip), vehicle: saline
  T/C: 111 % of control

## CN(C)c1ccc(/C=C\c2ccnc3ccccc23)cc1
dose: 1.25 mg/kg/injection, schedule: Q01DX010 (ip), vehicle: carboxymethylcellulose (CMC)
  T/C: 98 % of control
dose: 2.5 mg/kg/injection, schedule: Q01DX010 (ip), vehicle: carboxymethylcellulose (CMC)
  T/C: 95 % of control
dose: 5.0 mg/kg/injection, schedule: Q01DX010 (ip), vehicle: carboxymethylcellulose (CMC)
  T/C: 96 % of control
dose: 10.0 mg/kg/injection, schedule: Q01DX010 (ip), vehicle: carboxymethylcellulose (CMC)
  T/C: 88 % of control and 89 % of control
[16]
  T/C: 67 % of control

## Nc1nc(N)c(N=Nc2ccccc2)c(=O)[nH]1
[5]
  T/C: 100 % of control
[3]
  T/C: 110 % of control
[7]
  T/C: 93 % of control
[4]
  T/C: 100 % of control

## O=C1C=CC(=O)O1 (tested in a mixture with another compound)
dose: 1.5 mg/kg/injection, schedule: Q#A X020 (ip), vehicle: carboxymethylcellulose (CMC)
  T/C: 68 % of control
[6]
  T/C: 82 % of control
dose: 7.5 mg/kg/injection, schedule: Q#A X010 (ip), vehicle: carboxymethylcellulose (CMC)
  T/C: 91 % of control
dose: 62.5 mg/kg/injection, schedule: Q#A X010 (ip), vehicle: carboxymethylcellulose (CMC)
  T/C: 77 % of control

## COc1ccc(Nc2ccnc3cc(Cl)ccc23)cc1CN(CCCl)CCCl
[9]
  T/C: 95 % of control
[10]
  T/C: 91 % of control
[11]
  T/C: 93 % of control
[12]
  T/C: 70 % of control

## O=C(c1ccc(C(=O)N2CC2)cc1)N1CC1
[14]
  T/C: 69 % of control
[1]
  T/C: 85 % of control
[13]
  T/C: 166 % of control
dose: 24.0 mg/kg/injection, schedule: Q01DX010 (ip), vehicle: carboxymethylcellulose (CMC)
  T/C: 98 % of control

## CCCCn1cnc2c(=S)nc(N)[nH]c21
[10]
  T/C: 82 % of control
dose: 7.0 mg/kg/injection, schedule: Q01DX010 (ip), vehicle: carboxymethylcellulose (CMC)
  T/C: 60 % of control and 77 % of control
[15]
  T/C: 50 % of control
dose: 30.0 mg/kg/injection, schedule: Q01DX010 (ip), vehicle: carboxymethylcellulose (CMC)
  T/C: 49 % of control

## C=CCn1c(=O)n(CC=C)c(=O)n(CC=C)c1=O
dose: 22.5 mg/kg/injection, schedule: Q01DX010 (ip), vehicle: saline
  T/C: 76 % of control
dose: 45.0 mg/kg/injection, schedule: Q01DX010 (ip), vehicle: saline
  T/C: 63 % of control
dose: 90.0 mg/kg/injection, schedule: Q01DX010 (ip), vehicle: saline
  T/C: 63 % of control

## O=C(O)c1ccc(-c2ccccc2)cc1
[5]
  T/C: 95 % of control
[3]
  T/C: 49 % of control

## CCCCCCCCCCCCCCCCC(C(=O)O)C(O)(CC(=O)O)C(=O)O (configuration not stated)
dose: 19.0 mg/kg/injection, schedule: Q01DX010 (ip), vehicle: carboxymethylcellulose (CMC)
  T/C: 78 % of control
dose: 37.5 mg/kg/injection, schedule: Q01DX010 (ip), vehicle: carboxymethylcellulose (CMC)
  T/C: 87 % of control

## CSc1ncc(Br)c(Sc2nc(N)nc3nc[nH]c23)n1
dose: 1.5 mg/kg/injection, schedule: Q01DX010 (ip), vehicle: carboxymethylcellulose (CMC)
  T/C: 106 % of control
[14]
  T/C: 117 % of control
[1]
  T/C: 92 % of control
[13]
  T/C: 74 % of control and 85 % of control and 92 % of control
dose: 18.0 mg/kg/injection, schedule: Q01DX010 (ip), vehicle: carboxymethylcellulose (CMC)
  T/C: 103 % of control
dose: 27.0 mg/kg/injection, schedule: Q01DX010 (ip), vehicle: carboxymethylcellulose (CMC)
  T/C: 77 % of control and 81 % of control
[17]
  T/C: 65 % of control

## CSc1ncnc2c1ncn2C1CCCO1 (configuration not stated)
[13]
  T/C: 70 % of control
[2]
  T/C: 69 % of control
[5]
  T/C: 72 % of control and 79 % of control
[3]
  T/C: 63 % of control and 76 % of control

## CCOC(=O)NC
dose: 75.0 mg/kg/injection, schedule: Q01DX010 (ip), vehicle: saline
  T/C: 64 % of control
dose: 150.0 mg/kg/injection, schedule: Q01DX010 (ip), vehicle: saline
  T/C: 83 % of control
dose: 300.0 mg/kg/injection, schedule: Q01DX010 (ip), vehicle: saline
  T/C: 93 % of control
dose: 600.0 mg/kg/injection, schedule: Q01DX010 (ip), vehicle: saline
  T/C: 83 % of control

## O=C1NC2C(NC(=O)N2Cl)N1Cl (configuration not stated)
dose: 20.0 mg/kg/injection, schedule: Q01DX010 (ip), vehicle: saline
  T/C: 101 % of control

## N[C@@H](Cc1ccc(N(CCCl)CCCl)cc1)C(=O)O
[9]
  T/C: 57 % of control
[10]
  T/C: 63 % of control
[11]
  T/C: 92 % of control
[12]
  T/C: 75 % of control

## Fc1ccc(CSc2ncnc3c2ncn3C2CCCCO2)cc1 (configuration not stated)
dose: 45.0 mg/kg/injection, schedule: Q01DX010 (ip), vehicle: carboxymethylcellulose (CMC)
  T/C: 102 % of control
dose: 90.0 mg/kg/injection, schedule: Q01DX010 (ip), vehicle: carboxymethylcellulose (CMC)
  T/C: 111 % of control
dose: 360.0 mg/kg/injection, schedule: Q01DX010 (ip), vehicle: carboxymethylcellulose (CMC)
  T/C: 57 % of control and 78 % of control
dose: 720.0 mg/kg/injection, schedule: Q01DX010 (ip), vehicle: carboxymethylcellulose (CMC)
  T/C: 75 % of control

## CN(C)CCCN1c2ccccc2Sc2ccc(C(F)(F)F)cc21
dose: 12.0 mg/kg/injection, schedule: Q01DX010 (ip), vehicle: saline
  T/C: 84 % of control
